# Reference: PubChem BioAssay AID1963849 (Molecular Pharmacology Branch, DTP, NCI, 2024)
# Test system: 299254-011-R-J1-PDC complex spheroid viability
# Assay: Anticancer human tumor 299254-011-R-J1-PDC patient-derived melanoma cell line growth inhibition [POLQ]
# Details: for IC50: curve of first compound; for viability, T/C: stronger effect = lower value
# Description: Multicellular complex tumor spheroid response to Polymerase (POL) inhibitors (novobiocin, ART-558, RP6685) in combination with a variety of drugs and investigational agents in selected tumor cell lines
# The POL inhibitors (novobiocin, ART-558, and RP6685) were evaluated both individually and in combination with standard of care and investigational anticancer small molecules within a complex spheroid model of solid tumors. . Complex spheroids include a stromal component modeled by human endothelial cells (HUVEC) and fibroblasts modeled by human mesenchymal stem cells (MSCs). The concentration ranges selected for each drug and investigational agent were based upon clinically achievable concentrations if the clinical Cmax of the agent was known.
# Compounds. The drugs and investigational agents: novobiocin (NSC847541), ART-558 (NSC835418), RP-6685 (NSC848927), peposertib (NSC802822), ceralasertib (NSC780249), elimusertib (NSC800525), camonsertib (NSC841442), AZD-1390 (NSC803789), olaparib (NSC753686), talazoparib (NSC767125), rucaparib (NSC756644), sotorasib (NSC818433), MRTX-1133 (NSC836407), SN-38 (NSC673596), topotecan (NSC609699), epotoside (NSC141540), doxorubicin (NSC123127), gemcitabine (NSC613327), 5-fluorouracil (NSC19893), paclitaxel (NSC125973), vemurafenib (NSC761431), MSA-2 (NSC828583), SN-011 (NSC837082), adavosertib (NSC754352), prexasertib (NSC758257), carboplatin (NSC241240) and oxaliplatin (NSC266046), were obtained from the National Cancer Institute (NCI) Developmental Therapeutics Program Chemical Repository (21). The FDA-approved anticancer drug set is available from the Developmental Therapeutics Program at https://dtp.cancer.gov/organization/dscb/obtaining/. […] The stock solutions were prepared in dimethyl sulfoxide (DMSO, Sigma-Aldrich, St. Louis, MO, cat. D2650), except for the platinum compounds which were prepared in saline (Quality Biological, Gaithersburg, MD, cat. 114-055-101), at 800-fold the tested concentration and stored at -70 degrees C prior to their use. All drugs and investigational agents were tested over a range starting from a high concentration at or near the clinical Cmax and decreasing in half-log increments. If the clinical Cmax for an agent had not been determined, the highest concentration tested was 10 microM, except for SN-38, which was tested at a high concentration of 1 microM.
# Cell Culture. All cells were maintained in an incubator at 37 degrees C and 5% CO2 with 95% humidity. The PDC lines were cultured according to standard operating procedures established by the NCI PDMR (https://pdmr.cancer.gov). Table 3 of the manuscript, lists the cell lines along with the number of the three cell types plated to form the mct-spheroids and media for tumor cell growth. After thawing, all PDC lines, except 997537-175-T-J1-PDC and 415267-285-R-J2-PDC, were cultured in Matrigel-coated flasks prepared with a working solution of 1X Ham's F-12 nutrient mix, without supplementation (Thermo Fisher Scientific, cat. 11765054), 100 U/mL penicillin-streptomycin (Thermo Fisher Scientific, cat. 15140122), and 2.5% Matrigel (Corning Inc., Corning, NY, cat. 354248) for the first three passages. The two PDC lines 997537-175-T-J1-PDC and 415267-285-R-J2-PDC were cultured on uncoated flasks. The 857933-349-R-J2-PDC line was cultured in 6C/Colon 1B media containing advanced DMEM/F-12 (Thermo Fisher Scientific, cat. 12634028), 10 mM HEPES (Thermo Fisher Scientific, cat. 15630080), 1X GlutaMAX supplement (Thermo Fisher Scientific, cat. 35050061), 0.1 mg/mL primocin (InvivoGen, San Diego, CA, cat. ant-pm-2), 10% defined fetal bovine serum, heat inactivated (HyClone Laboratories Inc., Logan, UT, cat. SH30070.03HI), 50% L-WRN conditioned media (ATCC, cat. CRL-3276), 1.25 mM N-Acetyl-L-cysteine (Sigma-Aldrich, cat. A9165), 10 mM nicotinamide (Sigma-Aldrich, cat. N0636), 1X B-27 supplement (Thermo Fisher Scientific, cat. 17504044), 1X N-2 supplement (Thermo Fisher Scientific, cat. […]
# [1] = second compound 0.0316 µM, first compound 0.0316 µM
# [2] = second compound 0.0316 µM, first compound 0.1 µM
# [3] = second compound 0.0316 µM, first compound 0.316 µM
# [4] = second compound 0.0316 µM, first compound 1 µM
# [5] = second compound 0.0316 µM, first compound 3.16 µM
# [6] = second compound 0.0316 µM, first compound 10 µM
# [7] = second compound 0.1 µM, first compound 0.0316 µM
# [8] = second compound 0.1 µM, first compound 0.1 µM
# [9] = second compound 0.1 µM, first compound 0.316 µM
# [10] = second compound 0.1 µM, first compound 1 µM
# [11] = second compound 0.1 µM, first compound 3.16 µM
# [12] = second compound 0.1 µM, first compound 10 µM
# [13] = second compound 0.316 µM, first compound 0.0316 µM
# [14] = second compound 0.316 µM, first compound 0.1 µM
# [15] = second compound 0.316 µM, first compound 0.316 µM
# [16] = second compound 0.316 µM, first compound 1 µM
# [17] = second compound 0.316 µM, first compound 3.16 µM
# [18] = second compound 0.316 µM, first compound 10 µM
# [19] = second compound 1 µM, first compound 0.0316 µM
# [20] = second compound 1 µM, first compound 0.1 µM
# [21] = second compound 1 µM, first compound 0.316 µM
# [22] = second compound 1 µM, first compound 1 µM
# [23] = second compound 1 µM, first compound 3.16 µM
# [24] = second compound 1 µM, first compound 10 µM
# [25] = second compound 3.16 µM, first compound 0.0316 µM
# [26] = second compound 3.16 µM, first compound 0.1 µM
# [27] = second compound 3.16 µM, first compound 0.316 µM
# [28] = second compound 3.16 µM, first compound 1 µM
# [29] = second compound 3.16 µM, first compound 3.16 µM
# [30] = second compound 3.16 µM, first compound 10 µM
# [31] = second compound 10 µM, first compound 0.0316 µM
# [32] = second compound 10 µM, first compound 0.1 µM
# [33] = second compound 10 µM, first compound 0.316 µM
# [34] = second compound 10 µM, first compound 1 µM
# [35] = second compound 10 µM, first compound 3.16 µM
# [36] = second compound 10 µM, first compound 10 µM
# 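Note: spheroids exposed to drugs for one week before measurement.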
# 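Throughout, for viability, T/C: percent viability relative to DMSO vehicle control taken as 100%.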
compound,measurement,setting,value
COc1cc(C2c3cc4c(cc3C(OC3OC5COC(C)OC5C(O)C3O)C3COC(=O)C23)OCO4)cc(OC)c1O (centres undefined) + COC1C(OC(N)=O)C(O)C(Oc2ccc3c(O)c(NC(=O)c4ccc(O)c(CC=C(C)C)c4)c(=O)oc3c2C)OC1(C)C,IC50,second compound 0.0316 µM,> 10 µM
same,IC50,second compound 0.1 µM,9.11 µM
same,IC50,second compound 0.316 µM,> 10 µM
same,IC50,second compound 1 µM,9.93 µM
same,IC50,second compound 3.16 µM,> 10 µM
same,IC50,second compound 10 µM,> 10 µM
same,"viability, T/C",[1],99%
same,"viability, T/C",[2],85.6%
same,"viability, T/C",[3],101%
same,"viability, T/C",[4],83.7%
same,"viability, T/C",[5],65.8%
same,"viability, T/C",[6],55.1%
same,"viability, T/C",[7],93.8%
same,"viability, T/C",[8],96.1%
same,"viability, T/C",[9],97.4%
same,"viability, T/C",[10],78.3%
same,"viability, T/C",[11],65.3%
same,"viability, T/C",[12],48.2%
same,"viability, T/C",[13],98%
same,"viability, T/C",[14],83.8%
same,"viability, T/C",[15],90.9%
same,"viability, T/C",[16],86.7%
same,"viability, T/C",[17],75.2%
same,"viability, T/C",[18],55.4%
same,"viability, T/C",[19],95.2%
same,"viability, T/C",[20],100%
same,"viability, T/C",[21],99.3%
same,"viability, T/C",[22],101%
same,"viability, T/C",[23],77.2%
same,"viability, T/C",[24],49.9%
same,"viability, T/C",[25],95.5%
same,"viability, T/C",[26],107%
same,"viability, T/C",[27],108%
same,"viability, T/C",[28],95.2%
same,"viability, T/C",[29],63.6%
same,"viability, T/C",[30],59.4%
same,"viability, T/C",[31],103%
same,"viability, T/C",[32],99.7%
same,"viability, T/C",[33],101%
same,"viability, T/C",[34],86.6%
same,"viability, T/C",[35],80.6%
same,"viability, T/C",[36],55.9%
O=c1[nH]cc(F)c(=O)[nH]1 + COC1C(OC(N)=O)C(O)C(Oc2ccc3c(O)c(NC(=O)c4ccc(O)c(CC=C(C)C)c4)c(=O)oc3c2C)OC1(C)C,IC50,second compound 0.0316 µM,> 10 µM
same,IC50,second compound 0.1 µM,> 10 µM
same,IC50,second compound 0.316 µM,> 10 µM
same,IC50,second compound 1 µM,> 10 µM
same,IC50,second compound 3.16 µM,> 10 µM
same,IC50,second compound 10 µM,> 10 µM
same,"viability, T/C",[1],109%
same,"viability, T/C",[2],108%
same,"viability, T/C",[3],122%
same,"viability, T/C",[4],99.6%
same,"viability, T/C",[5],94.3%
same,"viability, T/C",[6],66.8%
same,"viability, T/C",[7],110%
same,"viability, T/C",[8],110%
same,"viability, T/C",[9],114%
same,"viability, T/C",[10],113%
same,"viability, T/C",[11],93.7%
same,"viability, T/C",[12],76.3%
same,"viability, T/C",[13],109%
same,"viability, T/C",[14],102%
same,"viability, T/C",[15],116%
same,"viability, T/C",[16],101%
same,"viability, T/C",[17],91.8%
same,"viability, T/C",[18],79.1%
same,"viability, T/C",[19],111%
same,"viability, T/C",[20],115%
same,"viability, T/C",[21],92.8%
same,"viability, T/C",[22],110%
same,"viability, T/C",[23],101%
same,"viability, T/C",[24],87.7%
same,"viability, T/C",[25],110%
same,"viability, T/C",[26],117%
same,"viability, T/C",[27],128%
same,"viability, T/C",[28],112%
same,"viability, T/C",[29],91.3%
same,"viability, T/C",[30],68.8%
same,"viability, T/C",[31],130%
same,"viability, T/C",[32],131%
same,"viability, T/C",[33],96.2%
same,"viability, T/C",[34],109%
same,"viability, T/C",[35],89.9%
same,"viability, T/C",[36],78.3%
